Reference: patent US9006250B2, “4-amino-6-(heterocyclic)picolinates and 6-amino-2-(heterocyclic)pyrimidine-4-carboxylates and their use as herbicides” (Dow AgroSciences, LLC, priority 2013, dated 2015)

How the values were obtained:
[1] = system: AMARE: redroot pigweed (Amaranthus retroflexus); assay: Post-Emergent Test II herbicidal activity; type: in vivo; conditions: post-emergence, 336 h, 14 days, read-out: Visual Growth Reduction (%) 14 Days After Application AMARE; for pest or weed control at 35 g/ha: 35 g ai/ha; for pest or weed control at 70 g/ha: 70 g ai/ha; for pest or weed control at 140 g/ha: 140 g ai/ha
Procedure, shortened: (§1)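 Seedlings raised 7-21 d under greenhouse conditions were treated at the first or second true leaf stage. Compounds, formulated with crop oil concentrate and surfactant, were applied overhead at 187 L/ha across a serial dilution series, with solvent-blank controls. Percent visual injury was scored after 14 d.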

[2] = system: CHEAL: lambsquarters (Chenopodium album); assay: Post-Emergent Test II herbicidal activity; type: in vivo; conditions: post-emergence, 336 h, 14 days, read-out: Visual Growth Reduction (%) 14 Days After Application CHEAL; for pest or weed control at 35 g/ha: 35 g ai/ha; for pest or weed control at 70 g/ha: 70 g ai/ha; for pest or weed control at 140 g/ha: 140 g ai/ha
Procedure, shortened: as §1

[3] = system: ORYSA: rice (Oryza sativa); assay: Post-Emergent Test II herbicidal activity; type: in vivo; conditions: post-emergence, 336 h, 14 days, read-out: Visual Growth Reduction (%) 14 Days After Application ORYSA; for pest or weed control at 35 g/ha: 35 g ai/ha; for pest or weed control at 70 g/ha: 70 g ai/ha; for pest or weed control at 140 g/ha: 140 g ai/ha
Procedure, shortened: as §1

[4] = system: ECHCG: barnyardgrass (Echinochloa crus-galli); assay: Post-Emergent Test II herbicidal activity; type: in vivo; conditions: post-emergence, 336 h, 14 days, read-out: Visual Growth Reduction (%) 14 Days After Application ECHCG; for pest or weed control at 35 g/ha: 35 g ai/ha; for pest or weed control at 70 g/ha: 70 g ai/ha; for pest or weed control at 140 g/ha: 140 g ai/ha
Procedure, shortened: as §1

[5] = system: TRZAS: wheat, spring (Triticum aestivum); assay: Post-Emergent Test II herbicidal activity; type: in vivo; conditions: post-emergence, 336 h, 14 days, read-out: Visual Growth Reduction (%) 14 Days After Application TRZAS; for pest or weed control at 35 g/ha: 35 g ai/ha; for pest or weed control at 70 g/ha: 70 g ai/ha; for pest or weed control at 140 g/ha: 140 g ai/ha
Procedure, shortened: as §1

[6] = system: EPHHL: wild poinsettia (Euphorbia heterophylla); assay: Post-Emergent Test II herbicidal activity; type: in vivo; conditions: post-emergence, 336 h, 14 days, read-out: Visual Growth Reduction (%) 14 Days After Application EPHHL; for pest or weed control at 35 g/ha: 35 g ai/ha; for pest or weed control at 70 g/ha: 70 g ai/ha; for pest or weed control at 140 g/ha: 140 g ai/ha
Procedure, shortened: as §1

[7] = system: SETFA: giant foxtail (Setaria faberi); assay: Post-Emergent Test II herbicidal activity; type: in vivo; conditions: post-emergence, 336 h, 14 days, read-out: Visual Growth Reduction (%) 14 Days After Application SETFA; for pest or weed control at 35 g/ha: 35 g ai/ha; for pest or weed control at 70 g/ha: 70 g ai/ha; for pest or weed control at 140 g/ha: 140 g ai/ha
Procedure, shortened: as §1

[8] = system: ZEAMX: maize, corn (Zea mays); assay: Post-Emergent Test II herbicidal activity; type: in vivo; conditions: post-emergence, 336 h, 14 days, read-out: Visual Growth Reduction (%) 14 Days After Application ZEAMX; for pest or weed control at 35 g/ha: 35 g ai/ha; for pest or weed control at 70 g/ha: 70 g ai/ha; for pest or weed control at 140 g/ha: 140 g ai/ha
Procedure, shortened: as §1

[9] = system: CYPES: yellow nutsedge (Cyperus esculentus); assay: Post-Emergent Test II herbicidal activity; type: in vivo; conditions: post-emergence, 336 h, 14 days, read-out: Visual Growth Reduction (%) 14 Days After Application CYPES; for pest or weed control at 35 g/ha: 35 g ai/ha; for pest or weed control at 70 g/ha: 70 g ai/ha; for pest or weed control at 140 g/ha: 140 g ai/ha
Procedure, shortened: as §1

[10] = system: ABUTH: velvetleaf (Abutilon theophrasti); assay: Post-Emergent Test II herbicidal activity; type: in vivo; conditions: post-emergence, 336 h, 14 days, read-out: Visual Growth Reduction (%) 14 Days After Application ABUTH; for pest or weed control at 35 g/ha: 35 g ai/ha; for pest or weed control at 70 g/ha: 70 g ai/ha; for pest or weed control at 140 g/ha: 140 g ai/ha
Procedure, shortened: as §1

[11] = system: BRSNN: oilseed rape, canola (Brassica napus); assay: Post-Emergent Test II herbicidal activity; type: in vivo; conditions: post-emergence, 336 h, 14 days, read-out: Visual Growth Reduction (%) 14 Days After Application BRSNN; for pest or weed control at 35 g/ha: 35 g ai/ha; for pest or weed control at 70 g/ha: 70 g ai/ha; for pest or weed control at 140 g/ha: 140 g ai/ha
Procedure, shortened: as §1

[12] = system: HELAN: sunflower (Helianthus annuus); assay: Post-Emergent Test II herbicidal activity; type: in vivo; conditions: post-emergence, 336 h, 14 days, read-out: Visual Growth Reduction (%) 14 Days After Application HELAN; for pest or weed control at 35 g/ha: 35 g ai/ha; for pest or weed control at 70 g/ha: 70 g ai/ha; for pest or weed control at 140 g/ha: 140 g ai/ha
Procedure, shortened: as §1

COC(=O)c1nc(-c2cc3nsnc3cc2F)cc(N)c1Cl [Compound 13]
pest or weed control at 35 g/ha [1]: 95 to 100% | pest or weed control at 70 g/ha [1]: 95 to 100% | pest or weed control at 140 g/ha [1]: 95 to 100% | pest or weed control at 35 g/ha [2]: 85 to 94% | pest or weed control at 70 g/ha [2]: 95 to 100% | pest or weed control at 140 g/ha [2]: 95 to 100% | pest or weed control at 35 g/ha [3]: 0 to 29% | pest or weed control at 70 g/ha [3]: 30 to 44% | pest or weed control at 140 g/ha [3]: 30 to 44% | pest or weed control at 35 g/ha [4]: 75 to 84% | pest or weed control at 70 g/ha [4]: 85 to 94% | pest or weed control at 140 g/ha [4]: 85 to 94% | pest or weed control at 35 g/ha [5]: 0 to 29% | pest or weed control at 70 g/ha [5]: 0 to 29% | pest or weed control at 140 g/ha [5]: 0 to 29% | pest or weed control at 35 g/ha [6]: 95 to 100% | pest or weed control at 70 g/ha [6]: 95 to 100% | pest or weed control at 140 g/ha [6]: 95 to 100% | pest or weed control at 35 g/ha [7]: 60 to 74% | pest or weed control at 70 g/ha [7]: 60 to 74% | pest or weed control at 140 g/ha [7]: 85 to 94% | pest or weed control at 35 g/ha [8]: 60 to 74% | pest or weed control at 70 g/ha [8]: 75 to 84% | pest or weed control at 140 g/ha [8]: 85 to 94% | pest or weed control at 35 g/ha [9]: 0 to 29% | pest or weed control at 70 g/ha [9]: 0 to 29% | pest or weed control at 140 g/ha [9]: 30 to 44% | pest or weed control at 35 g/ha [10]: 75 to 84% | pest or weed control at 70 g/ha [10]: 85 to 94% | pest or weed control at 140 g/ha [10]: 85 to 94% | pest or weed control at 35 g/ha [11]: 95 to 100% | pest or weed control at 70 g/ha [11]: 95 to 100% | pest or weed control at 140 g/ha [11]: 95 to 100% | pest or weed control at 35 g/ha [12]: 30 to 44% | pest or weed control at 70 g/ha [12]: 60 to 74% | pest or weed control at 140 g/ha [12]: 75 to 84% | melting point: 218 to 220 °C

COC(=O)c1nc(-c2ccc3nsnc3c2)c(F)c(N)c1Cl [Compound 11]
pest or weed control at 35 g/ha [1]: 95 to 100% | pest or weed control at 70 g/ha [1]: 95 to 100% | pest or weed control at 140 g/ha [1]: 95 to 100% | pest or weed control at 35 g/ha [2]: 85 to 94% | pest or weed control at 70 g/ha [2]: 95 to 100% | pest or weed control at 140 g/ha [2]: 95 to 100% | pest or weed control at 35 g/ha [3]: 0 to 29% | pest or weed control at 70 g/ha [3]: 0 to 29% | pest or weed control at 140 g/ha [3]: 0 to 29% | pest or weed control at 35 g/ha [4]: 85 to 94% | pest or weed control at 70 g/ha [4]: 95 to 100% | pest or weed control at 140 g/ha [4]: 95 to 100% | pest or weed control at 35 g/ha [5]: 0 to 29% | pest or weed control at 70 g/ha [5]: 0 to 29% | pest or weed control at 140 g/ha [5]: 0 to 29% | pest or weed control at 35 g/ha [6]: 95 to 100% | pest or weed control at 70 g/ha [6]: 95 to 100% | pest or weed control at 140 g/ha [6]: 95 to 100% | pest or weed control at 35 g/ha [7]: 45 to 59% | pest or weed control at 70 g/ha [7]: 85 to 94% | pest or weed control at 140 g/ha [7]: 85 to 94% | pest or weed control at 35 g/ha [8]: 60 to 74% | pest or weed control at 70 g/ha [8]: 60 to 74% | pest or weed control at 140 g/ha [8]: 75 to 84% | pest or weed control at 35 g/ha [9]: 95 to 100% | pest or weed control at 70 g/ha [9]: 95 to 100% | pest or weed control at 140 g/ha [9]: 95 to 100% | pest or weed control at 35 g/ha [10]: 85 to 94% | pest or weed control at 70 g/ha [10]: 95 to 100% | pest or weed control at 140 g/ha [10]: 95 to 100% | pest or weed control at 35 g/ha [11]: 60 to 74% | pest or weed control at 70 g/ha [11]: 75 to 84% | pest or weed control at 140 g/ha [11]: 75 to 84% | pest or weed control at 35 g/ha [12]: 85 to 94% | pest or weed control at 70 g/ha [12]: 85 to 94% | pest or weed control at 140 g/ha [12]: 95 to 100% | melting point: 196 to 198 °C
